Two compounds from patent US8765744B2, “Azaspirohexanones” (Boehringer Ingelheim International GmbH, priority 2010, dated 2014) can be followed below.

For the assay, the target named is 11β-HSD1 (Homo sapiens (Human), UniProt P28845). The conditions noted are these: read-out: Inhibitory activity on 11β-HSD 1, IC50; human liver microsomes; 1 hour at 37° C.; NADPH 200 μM, cortisone 80 nM; HTRF cortisol detection.

In general, IC50 refers to the concentration at which inhibition is half-maximal.

Sequence of 11β-HSD1 (P28845 whole entry): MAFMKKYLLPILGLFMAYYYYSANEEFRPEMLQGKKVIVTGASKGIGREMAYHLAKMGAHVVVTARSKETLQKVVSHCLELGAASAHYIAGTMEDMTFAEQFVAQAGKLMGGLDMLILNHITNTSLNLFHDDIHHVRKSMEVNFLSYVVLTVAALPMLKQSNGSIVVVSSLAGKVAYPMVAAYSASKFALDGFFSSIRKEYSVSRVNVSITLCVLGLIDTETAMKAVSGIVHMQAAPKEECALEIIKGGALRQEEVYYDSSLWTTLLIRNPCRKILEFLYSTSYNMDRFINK
Experimental: The biological properties (inhibitory activity on 11β-hydroxysteroid dehydrogenase 1) of the new compounds may be investigated as follows:
Briefly, compounds are incubated for 1 hour at 37° C. in Tris buffer (20 mM tris, 5 mM EDTA, pH 6.0) containing NADPH (200 μM) and cortisone (80 nM). Cortisol generated in the reaction is then detected with a competitive immunoassay, involving two HTRF conjugates: cortisol linked to XL665 and anti-cortisol antibody labeled with Europium cryptate. The incubation period for detection reaction is typically 2 hours. […] The ratio of the two emission signals is then calculated (Em665*10000/Em615). […] Each assay also contains a calibration curve with cortisol to transform the fluorescent data into cortisol concentrations. Percent inhibition (% CTL) of each compound is determined relative to the carbenoxolone signal and IC50 curves are generated.

Take `C[C@@H](c1ccc(-c2ccn(C)c(=O)c2)cc1)N1CCC2(CCC3(CC2)OCC(C)(C)CO3)OC1=O` [Example 16, 12,12-Dimethyl-3-{(S)-1-[4-(1-methyl-2-oxo-1,2-dihydro-pyridin-4-yl)-phenyl]-ethyl}-1,10,14-trioxa-3-aza-dispiro[5.2.5.2]hexadecan-2-one]: the IC50 is greater than 10 µM.

As to `C[C@@H](c1ccc(-c2ccc(C(=O)N(C)C)nc2)cc1)N1CCC2(CCC3(CC2)OCC(C)(C)CO3)OC1=O` [Example 17, 5-{4-[(S)-1-(12,12-Dimethyl-2-oxo-1,10,14-trioxa-3-aza-dispiro[5.2.5.2]hexadec-3-yl)-ethyl]-phenyl}-pyridine-2-carboxylic acid dimethylamide], the IC50 is greater than 10 µM.
